Where “and” joins values, the source holds several entries; their conditions need not be identical. Equal entries are not always repeated. Entries after “also recorded” stand apart in the source; their conditions may differ. Where two headings read alike, the source gives them in different places.
What was measured:
CD1 mice ileal mucosa = type: cell-based, mouse
[1] = test system: infectious SA11 rotavirus; details: mouse, in vivo
CD1 mice = details: mouse, in vivo
mice [2] = details: mouse, in vivo; cited from earlier work
Balb/C mice = details: mouse, in vivo, ip
insect cells = details: cited from earlier work
19 day old pups = details: mouse, in vivo
CFTR knock-out mice = details: mouse, in vivo
[3] = in vivo
simian rotavirus SA11 = details: mouse, in vivo
SA11 VP6 = SA11 VP6 (Rotavirus A, UniProt P03531); set-up: species or system simian rotavirus SA11; details: in vivo
SA11 VP6, sequence (P03531 whole entry, looked up): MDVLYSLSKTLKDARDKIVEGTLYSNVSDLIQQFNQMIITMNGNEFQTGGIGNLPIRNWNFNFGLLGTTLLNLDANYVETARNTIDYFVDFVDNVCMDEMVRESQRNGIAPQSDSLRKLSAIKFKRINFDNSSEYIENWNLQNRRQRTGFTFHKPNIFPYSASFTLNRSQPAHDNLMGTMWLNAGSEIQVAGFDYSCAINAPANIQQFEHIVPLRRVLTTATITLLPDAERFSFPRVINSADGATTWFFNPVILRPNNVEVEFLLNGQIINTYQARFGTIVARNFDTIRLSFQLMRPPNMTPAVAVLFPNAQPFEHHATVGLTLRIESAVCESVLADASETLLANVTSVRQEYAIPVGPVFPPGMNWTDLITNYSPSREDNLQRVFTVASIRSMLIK

full-length NSP4 = test system: full-length NSP4; set-up: species or system simian rotavirus SA11; details: in vivo, sc
murine rotavirus ECwt = details: mouse, in vivo
mice [4] = details: mouse, in vivo

Compound: C=C[C@@]1(C)CC(=O)[C@]2(O)[C@@]3(C)[C@@H](O)CCC(C)(C)[C@@H]3[C@H](O)[C@H](OC(C)=O)[C@@]2(C)O1 [Forskolin (FSK), forskolin]
- ▴ISC (CD1 mice ileal mucosa): 44 ± 0.7 μA/cm^2 and 41 ± 7 μA/cm^2

Compound: EKLTDLNYTLSVITLMNNTLH [NSP4 2-22]
- % pups with diarrhea, 2 days [1]: 63%
- % pups with diarrhea, 3 days [1]: 25%
- % pups with diarrhea, Total [1]: 100%
- pups with diarrhea/total pups, 2 days [1]: (10/16)
- pups with diarrhea/total pups, 3 days [1]: (4/16)
- pups with diarrhea/total pups, Total [1]: (16/16)
- # responders/total # tested (CD1 mice; ip): 0/11
- % Diarrhea (CD1 mice; ip): 0%
- symptoms with control peptides (CD1 mice; ip): No symptoms

Compound: MIDKLTTREI EQVELL KRIYDKLTVQTTGEIDMTKEINQKNVRTLEEWESGKNPYEPKEVTAAM [NSP4 112-175]
- enterotoxin activity (mice [2]): has enterotoxin activity in mice

Compound: DKLTTREIEQVELLKRIYDKLT [NSP4 114-135]
- % Diarrhea (Balb/C mice): 100% and 80%
- % pups with diarrhea, 2 days [1]: 17%
- % pups with diarrhea, 3 days [1]: 0%
- % pups with diarrhea, Total [1]: 42%
- pups with diarrhea/total pups, 2 days [1]: (2/12)
- pups with diarrhea/total pups, 3 days [1]: (0/12)
- pups with diarrhea/total pups, Total [1]: (5/12)
- intracellular calcium in insect cells (insect cells): mobilize intracellular calcium levels
- diarrhea (19 day old pups): no diarrhea was seen
- intestinal fluid accumulation (19 day old pups): significant fluid accumulation
- % of animals with diarrhea (CFTR knock-out mice): 80%
- time frame of diarrhea induction (CD1 mice): about 3 hrs
- # responders/total # tested (CD1 mice; ip): 8/12
- % Diarrhea (CD1 mice; ip): 67%
- DD50 (50% diarrheal dose) (CD1 mice; ip): 79 nmol
- diarrhea typically continued for (CD1 mice; ip): up to 8 hr
- weight lower than normal animals [3]: 20-30%
- increase in mucosal Isc after FSK pretreatment (CD1 mice ileal mucosa): 64 μA/cm2

Compound: QS-21
- Mean diarrhea score (simian rotavirus SA11): 3.5 and 3.3
- Pups with diarrhea % at indicated DPI: 3 (simian rotavirus SA11): 100%
- Pups with diarrhea % at indicated DPI: 4 (simian rotavirus SA11): 56%
- Pups with diarrhea/total at DPI 2 (simian rotavirus SA11): (8/12); also recorded: (3/9)
- Pups with diarrhea/total at DPI 3 (simian rotavirus SA11): (12/12); also recorded: (9/9)
- Pups with diarrhea/total at DPI 4 (simian rotavirus SA11): (4/12); also recorded: (5/9)
- Pups with diarrhea/total at DPI 7 (simian rotavirus SA11): (12/12); also recorded: (9/9)
- duration of diarrhea (simian rotavirus SA11): at least two days
- Pups with diarrhea % at indicated DPI: 2 (simian rotavirus SA11; po): 76%
- Pups with diarrhea % at indicated DPI: 3 (simian rotavirus SA11; po): 100%
- Pups with diarrhea % at indicated DPI: 4 (simian rotavirus SA11; po): 33%
- serum antibody titers to VP6 in dams (GMT) (SA11 VP6): 2×10^3
- serum antibody geometric mean titers (GMT) to NSP4 full-length in dams (full-length NSP4): lacked antibody
- Mean diarrhea score (murine rotavirus ECwt): 3.3
- Pups with diarrhea % at indicated DPI: 0-8 (murine rotavirus ECwt): 100%
- Pups with diarrhea % at indicated DPI: 2 (murine rotavirus ECwt): 29%
- Pups with diarrhea % at indicated DPI: 3 (murine rotavirus ECwt): 100%
- Pups with diarrhea % at indicated DPI: 4 (murine rotavirus ECwt): 100%
- Pups with diarrhea % at indicated DPI: 5 (murine rotavirus ECwt): 100%
- Pups with diarrhea % at indicated DPI: 6 (murine rotavirus ECwt): 86%
- Pups with diarrhea % at indicated DPI: 7 (murine rotavirus ECwt): 71%
- Pups with diarrhea % at indicated DPI: 8 (murine rotavirus ECwt): 14%
- Pups with diarrhea/total at DPI 0-8 (murine rotavirus ECwt): (7/7)
- Pups with diarrhea/total at DPI 2 (murine rotavirus ECwt): (2/7)
- Pups with diarrhea/total at DPI 3 (murine rotavirus ECwt): (7/7)
- Pups with diarrhea/total at DPI 4 (murine rotavirus ECwt): (7/7)
- Pups with diarrhea/total at DPI 5 (murine rotavirus ECwt): (7/7)
- Pups with diarrhea/total at DPI 6 (murine rotavirus ECwt): (6/7)
- Pups with diarrhea/total at DPI 7 (murine rotavirus ECwt): (5/7)
- Pups with diarrhea/total at DPI 8 (murine rotavirus ECwt): (1/7)

Compound: DTGRNLGEFKAYPDGFLTCV [NV 464-483]
- # responders/total # tested (CD1 mice; ip): 0/10
- % Diarrhea (CD1 mice; ip): 0%
- symptoms with control peptides (CD1 mice; ip): No symptoms

Compound: C[N+](C)(C)CCOC(N)=O [Carbachol (Cch), carbachol]
- Isc with FSK (potentiated effect of FSK) (CD1 mice ileal mucosa): 64 μA/cm^2
- increase in mucosal Isc after FSK pretreatment (CD1 mice ileal mucosa): 63 μA/cm2
- ▴ISC (CD1 mice ileal mucosa): 9 ± 2 μA/cm^2 and 14 ± 4 μA/cm^2

Compound: TKDEIEKQMDRVVKEMRRQLEMIDKLTTREIEQ [NSP4 90-123]
- # responders/total # tested (CD1 mice; ip): 2/10
- % Diarrhea (CD1 mice; ip): 20%

Compound: EIEQVELLKRIYDKLTVQTTGEIDMTKE [NSP4 120-147]
- % animals with diarrhea (mice [4]): 88%
- animals with diarrhea (mice [4]): 7 out of 8
- animals with severe diarrhea (mice [4]): 5 of 5

From US6673355B1 (priority 1995, dated 2004)
